Assay results taken from patent publication US20070249670A1, “Glycogen Phosphorylase Inhibitor Compounds and Pharmaceutical Compositions Thereof” (SMITHKLINE BEECHAM CORPORATION, priority 2004, published 2007).
Structures can show the parent of a compound that is named as a salt.

Molecular target: T1, human liver glycogen phosphorylase a (HLGPa) (Homo sapiens, UniProt P06737)
T1 construct: creating a full-length cDNA fused at the 5′ end to codons for methionine-glycine-alanine-histidine; 6xHis tag (leader Met-Gly-Ala-His6-Gly-Gly) (N); made in house; host or cells: E. coli (bacterial expression plasmid pTXK1007LTev)
T1 sequence (P06737 2-847 limits assumed): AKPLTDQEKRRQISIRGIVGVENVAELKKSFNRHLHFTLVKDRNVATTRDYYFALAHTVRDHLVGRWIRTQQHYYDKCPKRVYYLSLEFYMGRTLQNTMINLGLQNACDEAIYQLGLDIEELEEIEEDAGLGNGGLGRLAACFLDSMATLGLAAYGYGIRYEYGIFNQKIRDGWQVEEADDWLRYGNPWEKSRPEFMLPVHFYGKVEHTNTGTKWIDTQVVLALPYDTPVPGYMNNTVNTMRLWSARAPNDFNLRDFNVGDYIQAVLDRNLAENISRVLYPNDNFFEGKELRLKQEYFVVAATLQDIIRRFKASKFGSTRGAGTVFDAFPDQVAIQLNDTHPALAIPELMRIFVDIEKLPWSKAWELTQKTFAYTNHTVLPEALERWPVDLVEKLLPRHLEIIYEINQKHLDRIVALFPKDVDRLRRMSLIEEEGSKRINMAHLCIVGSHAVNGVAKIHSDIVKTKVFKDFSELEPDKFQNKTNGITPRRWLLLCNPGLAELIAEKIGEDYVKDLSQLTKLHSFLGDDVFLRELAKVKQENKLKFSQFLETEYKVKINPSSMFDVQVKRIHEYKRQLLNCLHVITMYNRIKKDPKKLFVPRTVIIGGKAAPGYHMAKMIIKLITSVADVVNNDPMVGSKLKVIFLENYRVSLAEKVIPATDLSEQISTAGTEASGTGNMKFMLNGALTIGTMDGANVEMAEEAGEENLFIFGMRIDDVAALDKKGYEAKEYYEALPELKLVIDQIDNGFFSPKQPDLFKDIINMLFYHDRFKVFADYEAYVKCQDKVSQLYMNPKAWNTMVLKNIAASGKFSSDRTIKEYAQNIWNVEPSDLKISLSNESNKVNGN
Assay: Human liver glycogen phosphorylase a enzymatic activity assay (coupled, fluorescent resorufin readout, with and without 10 mM glucose)
Format: biochemical
Conditions: human liver glycogen phosphorylase a enzymatic activity assay

| SMILES | IC50 |
| --- | --- |
| Cc1cccc(Cl)c1NC(=O)Nc1cc2ccccc2cc1C(=O)N[C@@H](Cc1cnc[nH]1)C(=O)O [Example 61, N-[3-({[(2-chloro-6-methylphenyl)amino]carbonyl}amino)-2-naphthoyl]-L-histidine trifluoroacetate] | 0.45 µM |
| Cc1cccc(Cl)c1NC(=O)Nc1cc2ccccc2cc1C(=O)N[C@@H](Cc1ccccc1)C(=O)O [Example 62, N-[3-({[(2-chloro-6-methylphenyl)amino]carbonyl}amino)-2-naphthoyl]-L-phenylalanine] | 0.26 µM |
| Cc1cccc(Cl)c1NC(=O)Nc1cc2ccccc2cc1C(=O)N[C@@H](CCCNC(=N)N)C(=O)O [Example 63, N-[3-({[(2-chloro-6-methylphenyl)amino]carbonyl}amino)-2-naphthoyl]-L-arginine] | 2.73 µM |
| Cc1cccc(Cl)c1NC(=O)Nc1cc2ccccc2cc1C(=O)N[C@@H](Cc1ccc(O)cc1)C(=O)O [Example 64, N-[3-({[(2-chloro-6-methylphenyl)amino]carbonyl}amino)-2-naphthoyl]-L-tyrosine] | 0.45 µM |
| Cc1cccc(Cl)c1NC(=O)Nc1cc2ccccc2cc1C(=O)N[C@@H](Cc1c[nH]c2ccccc12)C(=O)O [Example 65, N-[3-({[(2-chloro-6-methylphenyl)amino]carbonyl}amino)-2-naphthoyl]-L-tryptophan trifluoroacetate] | 0.27 µM |
| Cc1cccc(Cl)c1NC(=O)Nc1cc(F)c(F)cc1C(=O)N[C@@H](CC(=O)O)C(=O)O [Example 66, N-[2-({[(2-chloro-6-methylphenyl)amino]carbonyl}amino)-4,5-difluorobenzoyl]-L-aspartic acid] | 7.16 µM |
| COc1cc(NC(=O)Nc2c(C)cccc2Cl)c(C(=O)N[C@@H](CC(=O)O)C(=O)O)cc1OC [Example 67, N-[2-({[(2-chloro-6-methylphenyl)amino]carbonyl}amino)-4,5-dimethoxybenzoyl]-L-aspartic acid] | 19.8 µM |
| Cc1cccc(Cl)c1NC(=O)Nc1cc(F)c(F)cc1C(=O)N[C@@H](CC(C)C)C(=O)O [Example 68, N-[2-({[(2-chloro-6-methylphenyl)amino]carbonyl}amino)-4,5-difluorobenzoyl]-L-leucine] | 7.54 µM |
| COc1cc(NC(=O)Nc2c(C)cccc2Cl)c(C(=O)N[C@@H](CC(C)C)C(=O)O)cc1OC [Example 69, N-[2-({[(2-chloro-6-methylphenyl)amino]carbonyl}amino)-4,5-dimethoxybenzoyl]-L-leucine] | 13.8 µM |
| CC[C@H](C)[C@H](NC(=O)c1cc(F)c(F)cc1NC(=O)Nc1c(C)cccc1Cl)C(=O)O [Example 70, N-[2-({[(2-chloro-6-methylphenyl)amino]carbonyl}amino)-4,5-difluorobenzoyl]-L-isoleucine] | 5.97 µM |
| CC[C@H](C)[C@H](NC(=O)c1cc(OC)c(OC)cc1NC(=O)Nc1c(C)cccc1Cl)C(=O)O [Example 71, N-[2-({[(2-chloro-6-methylphenyl)amino]carbonyl}amino)-4,5-dimethoxybenzoyl]-L-isoleucine] | 22.3 µM |
| Cc1cccc(Cl)c1NC(=O)Nc1cc(F)c(F)cc1C(=O)N[C@@H](Cc1ccccc1)C(=O)O [Example 72, N-[2-({[(2-chloro-6-methylphenyl)amino]carbonyl}amino)-4,5-difluorobenzoyl]-L-phenylalanine] | 10.9 µM |
| COc1cc(NC(=O)Nc2c(C)cccc2Cl)c(C(=O)N[C@@H](Cc2ccccc2)C(=O)O)cc1OC [Example 73, N-[2-({[(2-chloro-6-methylphenyl)amino]carbonyl}amino)-4,5-dimethoxybenzoyl]-L-phenylalanine] | 11.6 µM |
| Cc1cccc(Cl)c1NC(=O)Nc1cc(F)c(F)cc1C(=O)N[C@@H](Cc1c[nH]c2ccccc12)C(=O)O [Example 74, N-[2-({[(2-chloro-6-methylphenyl)amino]carbonyl}amino)-4,5-difluorobenzoyl]-L-tryptophan trifluoroacetate] | 6.58 µM |
| COc1cc(NC(=O)Nc2c(C)cccc2Cl)c(C(=O)N[C@@H](Cc2c[nH]c3ccccc23)C(=O)O)cc1OC [Example 75, N-[2-({[(2-chloro-6-methylphenyl)amino]carbonyl}amino)-4,5-dimethoxybenzoyl]-L-tryptophan trifluoroacetate] | 0.76 µM |
| O=C(Nc1ccccc1Cl)Nc1cc(F)c(F)cc1C(=O)N[C@@H](Cc1c[nH]c2ccccc12)C(=O)O [Example 76, N-[2-({[(2-chlorophenyl)amino]carbonyl}amino)-4,5-difluorobenzoyl]-L-tryptophan trifluoroacetate] | 3.74 µM |

More lines, now with the values ahead:

| IC50 | SMILES |
| --- | --- |
| 9.05 µM | COc1cc(NC(=O)Nc2ccccc2Cl)c(C(=O)N[C@@H](Cc2c[nH]c3ccccc23)C(=O)O)cc1OC [Example 77, N-[2-({[(2-chlorophenyl)amino]carbonyl}amino)-4,5-dimethoxybenzoyl]-L-tryptophan trifluoroacetate] |
| 9.11 µM | Cc1cccc(C)c1NC(=O)Nc1cc(F)c(F)cc1C(=O)N[C@@H](CC(=O)O)C(=O)O [Example 78, N-[2-({[(2,6-dimethylphenyl)amino]carbonyl}amino)-4,5-difluorobenzoyl]-L-aspartic acid] |
| 18.7 µM | Cc1cccc(C)c1NC(=O)Nc1cc(F)c(F)cc1C(=O)N[C@@H](CC(C)C)C(=O)O [Example 79, N-[2-({[(2,6-dimethylphenyl)amino]carbonyl}amino)-4,5-difluorobenzoyl]-L-leucine] |
| 8.73 µM | CC[C@H](C)[C@H](NC(=O)c1cc(F)c(F)cc1NC(=O)Nc1c(C)cccc1C)C(=O)O [Example 80, N-[2-({[(2,6-dimethylphenyl)amino]carbonyl}amino)-4,5-difluorobenzoyl]-L-isoleucine] |
| 14.7 µM | Cc1cccc(C)c1NC(=O)Nc1cc(F)c(F)cc1C(=O)N[C@@H](Cc1ccccc1)C(=O)O [Example 81, N-[2-({[(2,6-dimethylphenyl)amino]carbonyl}amino)-4,5-difluorobenzoyl]-L-phenylalanine] |
| 9.41 µM | COc1cc(NC(=O)Nc2c(C)cccc2C)c(C(=O)N[C@@H](Cc2c[nH]c3ccccc23)C(=O)O)cc1OC [Example 82, N-[2-({[(2,6-dimethylphenyl)amino]carbonyl}amino)-4,5-dimethoxybenzoyl]-L-tryptophan trifluoroacetate] |
| 34.1 µM | CCc1cccc(CC)c1NC(=O)Nc1ccccc1C(=O)N[C@@H](CC(=O)O)C(=O)O [Example 83, N-[2-({[(2,6-diethylphenyl)amino]carbonyl}amino)benzoyl]-L-aspartic acid] |
| 0.39 µM | Cc1cccc(Cl)c1NC(=O)Nc1cc2ccccc2cc1C(=O)N[C@@H](CC(=O)O)C(=O)O [Example 84, N-[3-({[(2-chloro-6-methylphenyl)amino]carbonyl}amino)-2-naphthoyl]-L-aspartic acid] |
| 0.57 µM | Cc1cccc(Cl)c1NC(=O)Nc1cc2ccccc2cc1C(=O)NCC(=O)O [Example 85, N-[3-({[(2-chloro-6-methylphenyl)amino]carbonyl}amino)-2-naphthoyl]glycine] |
| 0.7 µM | Cc1cccc(Cl)c1NC(=O)Nc1cc2ccccc2cc1C(=O)N[C@@H](CCC(=O)O)C(=O)O [Example 86, N-[3-({[(2-chloro-6-methylphenyl)amino]carbonyl}amino)-2-naphthoyl]-L-glutamic acid] |
| 24.5 µM | Cc1cccc(Cl)c1NC(=O)Nc1ccccc1C(=O)N[C@@H](CC(=O)O)C(=O)O [Example 87, N-[2-({[(2-chloro-6-methylphenyl)amino]carbonyl}amino)benzoyl]-L-aspartic acid] |
